Results as given in patent publication US9018383B2, “Acylamino-substituted cyclic carboxylic acid derivatives and their use as pharmaceuticals” (Sanofi, priority 2009, dated 2015).

Target: human Edg-2 receptor (Homo sapiens, UniProt Q92633)
Test: Determination of Edg-2 receptor inhibition by FLIPR measurements (LPA-mediated calcium liberation)
Format: cell-based
Details: CHO cells overexpressing human Edg-2 receptor, LPA 100 nM, fluo-4 calcium fluorescence; read-out: Inhibitory concentrations IC50 for inhibition of the Edg-2 receptor
Summary of the method: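 IC50 was derived from % inhibition of the baseline-corrected peak fluo-4 signal relative to DMSO, measured in triplicate. Compound was added ~5 min before 100 nM LPA (18:1) to human Edg-2–expressing CHO cells in pH 7.5 HBSS buffer with probenecid and HEPES, and fluorescence was monitored ~3 min.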

human Edg-2 receptor, sequence (Q92633 whole entry): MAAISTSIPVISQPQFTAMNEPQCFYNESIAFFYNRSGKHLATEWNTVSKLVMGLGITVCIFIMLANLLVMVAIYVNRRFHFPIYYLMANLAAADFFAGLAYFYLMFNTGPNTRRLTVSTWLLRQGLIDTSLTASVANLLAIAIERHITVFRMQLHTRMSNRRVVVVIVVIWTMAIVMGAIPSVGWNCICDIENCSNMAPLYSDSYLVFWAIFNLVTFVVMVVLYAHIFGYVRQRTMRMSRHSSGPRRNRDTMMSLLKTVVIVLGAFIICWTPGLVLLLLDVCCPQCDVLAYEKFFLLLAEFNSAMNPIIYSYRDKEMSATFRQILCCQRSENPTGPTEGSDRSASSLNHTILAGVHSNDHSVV

Row | SMILES | IC50
1 | COc1ccc(C(=O)NC2(C(=O)O)CCCCCC2)cc1-c1cccc(NS(=O)(=O)N(C)C)c1 [Example 103] | 100 to 1000 nM
2 | COc1ccc(C(=O)NC2(C(=O)O)CCCCCC2)cc1-c1cccc(C(C)C)c1 [Example 105] | 100 to 1000 nM
3 | COc1ccc(C(=O)NC2(C(=O)O)CCCCCC2)cc1-c1cccc(C#N)c1 [Example 106] | 1000 to 30000 nM
4 | COc1ccc(C(=O)NC2(C(=O)O)CCCCCC2)cc1OCCc1cccc(CCO)c1 [Example 107, 1-(3-{2-[3-(2-Hydroxy-ethyl)-phenyl]-ethoxy}-4-methoxy-benzoylamino)-cycloheptanecarboxylic acid] | < 100 nM
5 | COc1ccc(C(=O)NC2(C(=O)O)CCCCCCC2)cc1OCCc1cccc(CCO)c1 [Example 108, 1-(3-{2-[3-(2-Hydroxy-ethyl)-phenyl]-ethoxy}-4-methoxy-benzoylamino)-cyclooctanecarboxylic acid] | < 100 nM
6 | COc1ccc(C(=O)N[C@]2(C(=O)O)CC[C@H](C)CC2)cc1OCCc1cccc(CCO)c1 [Example 109, cis-1-(3-{2-[3-(2-Hydroxy-ethyl)-phenyl]-ethoxy}-4-methoxy-benzoylamino)-4-methyl-cyclohexanecarboxylic acid] | < 100 nM
7 | COc1ccc(C(=O)N[C@]2(C(=O)O)CC[C@@H](C)CC2)cc1OCCc1cccc(CCO)c1 [Example 110, trans-1-(3-{2-[3-(2-Hydroxy-ethyl)-phenyl]-ethoxy}-4-methoxy-benzoylamino)-4-methyl-cyclohexanecarboxylic acid] | < 100 nM
8 | CC[C@H]1CC[C@](NC(=O)c2ccc(OC)c(OCCc3cccc(CCO)c3)c2)(C(=O)O)CC1 [Example 111, cis-4-Ethyl-1-(3-{2-[3-(2-hydroxy-ethyl)-phenyl]-ethoxy}-4-methoxy-benzoylamino)-cyclohexanecarboxylic acid] | < 100 nM
9 | CC[C@H]1CC[C@@](NC(=O)c2ccc(OC)c(OCCc3cccc(CCO)c3)c2)(C(=O)O)CC1 [Example 112, trans-4-Ethyl-1-(3-{2-[3-(2-hydroxy-ethyl)-phenyl]-ethoxy}-4-methoxy-benzoylamino)-cyclohexanecarboxylic acid] | < 100 nM
10 | COCCOc1ccc(C(=O)N[C@]2(C(=O)O)CC[C@H](C)CC2)cc1OCCc1cccc(Cl)c1 [Example 113, cis-1-[3-[2-(3-Chloro-phenyl)-ethoxy]-4-(2-methoxy-ethoxy)-benzoylamio]-4-methyl-cyclohexanecarboxylic acid] | 100 to 1000 nM
11 | COCCOc1ccc(C(=O)N[C@]2(C(=O)O)CC[C@@H](C)CC2)cc1OCCc1cccc(Cl)c1 [Example 114, trans-1-[3-[2-(3-Chloro-phenyl)-ethoxy]-4-(2-methoxy-ethoxy)-benzoylamino]-4-methyl-cyclohexanecarboxylic acid] | 100 to 1000 nM
12 | COCCOc1ccc(C(=O)NC2(C(=O)O)CCCCCC2)cc1OCCc1cccc(Cl)c1 [Example 115, 1-[3-[2-(3-Chloro-phenyl)-ethoxy]-4-(2-methoxy-ethoxy)-benzoylamino]-cycloheptanecarboxylic acid] | 1000 to 30000 nM
13 | COCCOc1ccc(C(=O)NC2(C(=O)O)CCCCCC2)cc1OCCc1cccc(C)c1 [Example 116, 1-[4-(2-Methoxy-ethoxy)-3-(2-m-tolyl-ethoxy)-benzoylamino]-cycloheptanecarboxylic acid] | 1000 to 30000 nM
14 | COCCOc1ccc(C(=O)N[C@]2(C(=O)O)CC[C@@H](C)CC2)cc1OCCc1cccc(C)c1 [Example 117, trans-1-[4-(2-Methoxy-ethoxy)-3-(2-m-tolyl-ethoxy)-benzoylamino]-4-methyl-cyclohexane-carboxylic acid] | 1000 to 30000 nM
15 | COCCOc1ccc(C(=O)N[C@]2(C(=O)O)CC[C@H](C)CC2)cc1OCCc1cccc(C)c1 [Example 118, cis-1-[4-(2-Methoxy-ethoxy)-3-(2-m-tolyl-ethoxy)-benzoylamino]-4-methyl-cyclohexane-carboxylic acid] | 1000 to 30000 nM
16 | C[C@H]1CC[C@](NC(=O)c2ccc(OCCO)c(OCCc3cccc(Cl)c3)c2)(C(=O)O)CC1 [Example 119, cis-1-[3-[2-(3-Chloro-phenyl)-ethoxy]-4-(2-hydroxy-ethoxy)-benzoylamino]-4-methyl-cyclohexanecarboxylic acid] | < 100 nM
17 | O=C(NC1(C(=O)O)CCCCCC1)c1ccc(OCCO)c(OCCc2cccc(Cl)c2)c1 [Example 121, 1-[3-[2-(3-Chloro-phenyl)-ethoxy]-4-(2-hydroxy-ethoxy)-benzoylamino]-cycloheptane-carboxylic acid] | 100 to 1000 nM
18 | Cc1cccc(CCOc2cc(C(=O)N[C@]3(C(=O)O)CC[C@@H](C)CC3)ccc2OCCO)c1 [Example 122, trans-1-[4-(2-Hydroxy-ethoxy)-3-(2-m-tolyl-ethoxy)-benzoylamino]-4-methyl-cyclohexanecarboxylic acid] | < 100 nM
19 | Cc1cccc(CCOc2cc(C(=O)N[C@]3(C(=O)O)CC[C@H](C)CC3)ccc2OCCO)c1 [Example 123, cis-1-[4-(2-Hydroxy-ethoxy)-3-(2-m-tolyl-ethoxy)-benzoylamino]-4-methyl-cyclohexanecarboxylic acid] | < 100 nM
20 | Cc1cccc(CCOc2cc(C(=O)NC3(C(=O)O)CCCCCC3)ccc2OCCO)c1 [Example 124, 1-[4-(2-Hydroxy-ethoxy)-3-(2-m-tolyl-ethoxy)-benzoylamino]-cycloheptane-carboxylic acid] | 100 to 1000 nM
21 | CC[C@H]1CC[C@](NC(=O)c2ccc(C(F)(F)F)c(-c3ccc(OC)c(Cl)c3)c2)(C(=O)O)CC1 [Example 125, cis-1-[(3′-Chloro-4′-methoxy-6-trifluoromethyl-biphenyl-3-carbonyl)-amino]-4-ethyl-cyclohexanecarboxylic acid] | < 100 nM
22 | CC[C@H]1CC[C@](NC(=O)c2ccc(OC)c(OCCc3cccc(C4COC4)c3)c2)(C(=O)O)CC1 [Example 127, cis-4-Ethyl-1-{4-methoxy-3-[2-(3-oxetan-3-yl-phenyl)-ethoxy]-benzoylamino}-cyclohexanecarboxylic acid] | < 100 nM
23 | COc1ccc(C(=O)N[C@]2(C(=O)O)CC[C@@H](C)CC2)cc1OCCc1cccc(C2COC2)c1 [Example 128, trans-1-{4-Methoxy-3-[2-(3-oxetan-3-yl-phenyl)-ethoxy]-benzoylamino}-4-methyl-cyclohexanecarboxylic acid] | 100 to 1000 nM
24 | COc1ccc(C(=O)NC2(C(=O)O)CCCCCC2)cc1OCCc1cccc(C2COC2)c1 [Example 129, 1-{4-Methoxy-3-[2-(3-oxetan-3-yl-phenyl)-ethoxy]-benzoylamino}-cycloheptanecarboxylic acid] | 100 to 1000 nM
25 | CC[C@H]1CC[C@](NC(=O)c2ccc(C3COC3)c(OCCc3cccc(C)c3)c2)(C(=O)O)CC1 [Example 130, cis-4-Ethyl-1-[4-oxetan-3-yl-3-(2-m-tolyl-ethoxy)-benzoylamino]-cyclohexanecarboxylic acid] | < 100 nM
26 | Cc1cccc(CCOc2cc(C(=O)N[C@]3(C(=O)O)CC[C@H](C(F)(F)F)CC3)ccc2C2COC2)c1 [Example 131, cis-1-[4-Oxetan-3-yl-3-(2-m-tolyl-ethoxy)-benzoylamino]-4-trifluoromethyl-cyclohexanecarboxylic acid] | < 100 nM
27 | Cc1cccc(CCOc2cc(C(=O)NC3(C(=O)O)CCCCCC3)cc3c2OCO3)c1 [Example 132, 1-{[7-(2-m-Tolyl-ethoxy)-benzo[1,3]dioxole-5-carbonyl]-amino}-cycloheptanecarboxylic acid] | < 100 nM
